In US8728457B2, “Methods of inducing differentiation of stem cells” (priority 2001, dated 2014):

Columns and labels:
Brachyury T = assay: Northern blot of Brachyury T in P19EC aggregates; assay type: cell-based, mouse; details: FIG. 10B
Procedure: (§1) END-2 cells and hES cells were cultured as described in Example 1. The hES2 cell line from ES Cell International Pte Ltd was used in all experiments. […] Co-cultures were then grown for up to 6 weeks and scored for the presence of areas of beating muscle from 5 days onwards. HepG2 cells, a carcinoma cell line resembling liver parenchymal cells (Knowles et al, (1980) Science 209:497-9), were cultured in DMEM plus 10% FCS and passaged twice weekly. […] Hanging-drop cultures of P19 EC cells were initiated and maintained in DMEM/Ham's F12 (1:1), as described previously (Mummery et al, 1991), using regular FCS while bulk production of P19 embryoid bodies in the presence or absence of END-2 conditioned medium for isolation of RNA for Northem blotting, was in the presence of charcoal-stripped FCS, as described (Mummery et al, 1991) to reduce background levels of cardiomyocyte differentiation caused by lipophilic substances possibly with retinoid-like activity in FCS. P19 clone 6 were cultured in αMEM and treated αMEM conditioned by END-2 cells. For electrophysiology, beating aggregates were dissociated using collagenase and replated on gelatine-coated coverslips.
RNA was isolated from P19 aggregates and poly A+ RNA selected, as described previously (Mummery et al, 1990, Dev. Biol. 142: 406413).
Background differentiation levels are reduced virtually to zero if the FCS is passed over an activated charcoal column (DCC-FCS) to remove residual retinoids; in addition, differentiation is blocked by activin (van den Eijnden-van Raaij et al, 1991, Mech. Dev. 33:157-166). […] The P19EC assay system was preferred because these cells are feeder independent for undifferentiated growth. […] Moreover, the induction of Brachyury T is blocked by the additional presence of activin (FIG. 10B), consistent with its ability to block the formation of beating muscle in aggregates. The transient expression of Brachyury T is similar to that observed during early mesoderm differentiation during gastrulation of the mouse embryo.

P19 EC cells [1] = details: van den Eijnden-van Raaij et al, 1991; cited from earlier work
[2] = tested on: hES-derived cardiomyocytes; assay: Beating of hES-derived cardiomyocytes in response to pharmacological agonists; assay type: cell-based, human; details: hES2/END-2 co-culture derived cardiomyocytes
Procedure: as §1
The majority of the experiments described here were carried out using the hES2 cell line (Reubinoff et al, 2000). […] Oct4 expression thus correlated with phenotypic characteristics of undifferentiated cells. hES cells were subcultured by transferring small clumps of undifferentiated cells either to new, mit.C-treated MEFs or confluent cultures of mit.C-treated END-2 cells. After approximately 5d under these conditions, epithelial cells became evident which over the next few days become fluid-filled cysts (FIG. 1A). […] In addition, by 10 d areas of rhythmically contracting cells in more solid aggregates become evident (FIG. 1A, 3e) with a variety of overall morphologies (FIG. 1B, 3e). […]

P19 EC cells [3] = assay: Induction of beating muscle in replated P19EC aggregates (hanging drops); assay type: cell-based, mouse
Procedure: as §1, with “coverslips. […]” for “coverslips.”

## activin
Brachyury T; activin added with DMSO
  effect on DMSO induced Brachyury T expression: blocked
Brachyury T; activin added with END-2 CM
  effect on END-2 CM induced Brachyury T expression: blocked
P19 EC cells [1]
  effect on differentiation of P19EC aggregates to beating muscle: blocked

## CC(C)NCC(O)c1ccc(O)c(O)c1 (stereo not drawn) [isoprenaline]
[2]
  beating of hES-derived cardiomyocytes in response to agonist: upregulated

## C[S+](C)[O-] [DMSO, dimethyl sulphoxide]
P19 EC cells [3]; control, FIG. 10
  cardiomyocyte differentiation of P19EC aggregates: induces cardiomyocyte differentiation
P19 EC cells [3]; day 10, FIG. 10A
  aggregates with beating muscle: All aggregates beat
Brachyury T; aggregation phase, first 3 days
  Brachyury T expression (early mesoderm marker): induced

## CNC[C@H](O)c1cccc(O)c1 [phenylephrine]
[2]
  beating of hES-derived cardiomyocytes in response to agonist: upregulated

## C[N+](C)(C)CCOC(N)=O [carbachol]
[2]
  beating of hES-derived cardiomyocytes in response to agonist: upregulated
